Assay results from patent US20070042045A1, “Multilayer dosage form comprising a matrix that influences release of a modulatory substance” (ROEHM GBMH & CO. KG, priority 2003, published 2007).

experiment: active ingredient delivery in PhEur phosphate buffer of pH 6.8 in a USP dissolution tester; format: physicochemical; settings: versus pellets with microcrystalline cellulose (Example 5), EUDRAGIT RS coating, no matrix

| effect of the modulating substance in the core on active ingredient delivery | Structure (SMILES) |
| --- | --- |
| accelerating effect | O=C(O)CC(O)(CC(=O)O)C(=O)O [citric acid] |
| accelerating effect | O=C([O-])CCC(=O)[O-].[Na+].[Na+] [sodium succinate] |
| accelerating effect | CC(=O)[O-].[Na+] [sodium acetate] |

| Structure (SMILES) | effect of the modulating substance in the core on active ingredient delivery |
| --- | --- |
| [Cl-].[Na+] [sodium chloride] | reducing effect |
